# Experimental data taken from ChEMBL document CHEMBL3112418, “Synthesis of novel 1,2,3-triazole tagged pyrazolo[3,4-b]pyridine derivatives and their cytotoxic activity” (Bioorg Med Chem Lett, 2014).
# Activity calls are given as the source filed them. The calls are words filed in the database; no cut-off is given here.
# What was measured:
# Assay type in all cases: functional, cell-based
# [1] = tested on: B16-F10; test: Cytotoxicity against mouse B16F10 cells assessed as reduction in cell viability at 100 ug/ml after 24 hrs by MTT assay
# [2] = tested on: U-937; test: Cytotoxicity against human U937 cells assessed as reduction in cell viability at 100 ug/ml after 24 hrs by MTT assay
# [3] = tested on: HL-60; test: Cytotoxicity against human HL60 cells assessed as reduction in cell viability at 100 ug/ml after 24 hrs by MTT assay
# [4] = tested on: THP-1; test: Cytotoxicity against human THP1 cells assessed as reduction in cell viability at 100 ug/ml after 24 hrs by MTT assay
# [5] = Cytotoxicity against human U937 cells assessed as reduction in cell viability after 24 hrs by MTT assay; conditions: U-937, 24 h
# [6] = tested on: HL-60; test: Cytotoxicity against human HL60 cells assessed as reduction in cell viability after 24 hrs by MTT assay; conditions: HL-60, 24 h
# [7] = tested on: THP-1; test: Cytotoxicity against human THP1 cells assessed as reduction in cell viability after 24 hrs by MTT assay; conditions: THP-1, 24 h
# [8] = tested on: B16-F10; test: Cytotoxicity against mouse B16F10 cells assessed as reduction in cell viability after 24 hrs by MTT assay; conditions: B16-F10, 24 h
SMILES,Activity [1],Activity [2],Activity [3],Activity [4],IC50 [5] [µg/mL],IC50 [6] [µg/mL],IC50 [7] [µg/mL],IC50 [8] [µg/mL]
Nc1nn(Cc2cn(-c3ccccc3)nn2)c2nc(-c3ccccc3)cc(C(F)(F)F)c12,inactive,inactive,inactive,inactive,,,,
COc1cc([C@@H]2c3cc4c(cc3[C@@H](O[C@@H]3O[C@@H]5CO[C@@H](C)O[C@H]5[C@H](O)[C@H]3O)[C@H]3COC(=O)[C@H]23)OCO4)cc(OC)c1O [ETOPOSIDE],,,,,6.7,2.13,6.34,3.8
Nc1nn(Cc2cn(-c3cccc(Cl)c3)nn2)c2nc(-c3ccccc3)cc(C(F)(F)F)c12,inactive,,inactive,inactive,,,,
Nc1nn(Cc2cn(-c3ccc([N+](=O)[O-])cc3)nn2)c2nc(-c3ccccc3)cc(C(F)(F)F)c12,inactive,,inactive,inactive,98.8,,,
Nc1nn(Cc2cn(CC(=O)Nc3ccccc3)nn2)c2nc(-c3ccccc3)cc(C(F)(F)F)c12,inactive,inactive,,,,96.3,54.6,
Nc1nn(Cc2cn(CC(=O)NC3CCCCC3)nn2)c2nc(-c3ccccc3)cc(C(F)(F)F)c12,,,,,89,42.9,64.8,99.1
COc1ccc(NC(=O)Cn2cc(Cn3nc(N)c4c(C(F)(F)F)cc(-c5ccccc5)nc43)nn2)cc1,inactive,inactive,inactive,,,,56.7,
Nc1nn(Cc2cn(CC(=O)Nc3ccc(F)cc3)nn2)c2nc(-c3ccccc3)cc(C(F)(F)F)c12,inactive,inactive,,,,44.8,49.5,
Nc1nn(Cc2cn(CC(=O)Nc3cccc(F)c3)nn2)c2nc(-c3ccccc3)cc(C(F)(F)F)c12,inactive,,,,43.5,63.9,99.5,
Nc1nn(Cc2cn(CCC(F)(F)C(F)(F)C(F)(F)C(F)(F)C(F)(F)C(F)(F)F)nn2)c2nc(-c3ccccc3)cc(C(F)(F)F)c12,inactive,,,inactive,98.2,97.6,,
CCCCCCCCn1cc(Cn2nc(N)c3c(C(F)(F)F)cc(-c4ccccc4)nc32)nn1,inactive,inactive,inactive,inactive,,,,
Nc1nn(Cc2cn(CC(=O)Nc3ccc(F)cc3Br)nn2)c2nc(-c3ccccc3)cc(C(F)(F)F)c12,,,,,98.3,63.6,65.6,98
Nc1nn(Cc2cn(CC(=O)Nc3cccc(Cl)c3)nn2)c2nc(-c3ccccc3)cc(C(F)(F)F)c12,inactive,inactive,inactive,,,,37,
CCCCCCn1cc(Cn2nc(N)c3c(C(F)(F)F)cc(-c4ccccc4)nc32)nn1,inactive,inactive,inactive,inactive,,,,
Nc1nn(Cc2cn(CC(=O)Nc3c(F)cccc3F)nn2)c2nc(-c3ccccc3)cc(C(F)(F)F)c12,,,,,30.6,32.8,43.3,41.6
CCCCCCCCCCn1cc(Cn2nc(N)c3c(C(F)(F)F)cc(-c4ccccc4)nc32)nn1,,,,,27.1,29.9,48.7,84.9
Nc1nn(Cc2cn(-c3ccc(F)cc3)nn2)c2nc(-c3ccccc3)cc(C(F)(F)F)c12,inactive,inactive,inactive,inactive,,,,
Nc1nn(Cc2cn(-c3ccc(Br)c(F)c3)nn2)c2nc(-c3ccccc3)cc(C(F)(F)F)c12,inactive,inactive,inactive,inactive,,,,
Nc1nn(Cc2cn(-c3ccc(F)c(Cl)c3)nn2)c2nc(-c3ccccc3)cc(C(F)(F)F)c12,inactive,,,inactive,99.1,35,,
Cc1ccc(NC(=O)Cn2cc(Cn3nc(N)c4c(C(F)(F)F)cc(-c5ccccc5)nc43)nn2)cc1,inactive,,inactive,,65.3,,41.5,
Nc1nn(Cc2cn(CC(=O)Nc3ccccc3Br)nn2)c2nc(-c3ccccc3)cc(C(F)(F)F)c12,inactive,inactive,,,,27.2,95.3,
Nc1nn(Cc2cn(-c3ccc(O)c([N+](=O)[O-])c3)nn2)c2nc(-c3ccccc3)cc(C(F)(F)F)c12,,,,,41.3,,36.2,42.3
COc1ccc(-n2cc(Cn3nc(N)c4c(C(F)(F)F)cc(-c5ccccc5)nc43)nn2)cc1,inactive,inactive,inactive,inactive,,,,
CCCCn1cc(Cn2nc(N)c3c(C(F)(F)F)cc(-c4ccccc4)nc32)nn1,inactive,inactive,,,,36.7,46.1,
Nc1nn(Cc2cn(CCC(F)(F)C(F)(F)C(F)(F)C(F)(F)C(F)(F)C(F)(F)C(F)(F)C(F)(F)F)nn2)c2nc(-c3ccccc3)cc(C(F)(F)F)c12,inactive,inactive,inactive,inactive,,,,
Nc1nn(Cc2cn(-c3cccc(C(F)(F)F)c3)nn2)c2nc(-c3ccccc3)cc(C(F)(F)F)c12,inactive,inactive,inactive,inactive,,,,
Cc1c(Br)cccc1-n1cc(Cn2nc(N)c3c(C(F)(F)F)cc(-c4ccccc4)nc32)nn1,inactive,,inactive,inactive,97.2,,,
Cc1ccc(-n2cc(Cn3nc(N)c4c(C(F)(F)F)cc(-c5ccccc5)nc43)nn2)cc1,inactive,inactive,inactive,,,,98.6,
